From US8067455B2, “Amino acid derived prodrugs of propofol, compositions, uses and crystalline forms thereof” (XenoPort, Inc., priority 2004, dated 2011)
Where two headings read alike, the source gives them in different places.

Key:
[1] = rats, oral dosing; cited from earlier work
[2] = Solubility of compound (6) in water and PBS; type: physicochemical
Experimental: (§1) The hydrochloride (3.42 g, 9.89 mmol) was crystallized by dissolution in a mixture of ethanol and toluene (1/10 v/v, 110 mL) at 80° C. and the mixture allowed to cool to room temperature. Large needle-like crystals started to form after standing at room temperature for 48 h. The solution was filtered after standing for 7 days at room temperature. The product (6) was isolated as a white crystalline solid (2.7 g, 79% yield). ^1H-NMR (400 MHz, CD3OD): δ 7.16-7.24 (m, 3H), 4.81-4.85 (dd, J=12.4, 4.4 Hz, 1H), 4.59-4.63 (dd, J=12.0 Hz, 3.2 Hz, 1H), 4.45-4.49 (dd, J=4.4, 2.8 Hz, 1H), 2.98-3.02 (m, 2H), 1.18-1.19 (d, J=7.2 Hz, 12H). MS (ESI) m/z 310.3 (M+H)^+. Melting point: 188.1-189.1° C.

[3] = Stability at room temperature determined by LC/MS; type: physicochemical; settings: after three months
Experimental: as §1

Row | Structure (SMILES) | administered drug undergoing first pass metabolism [1] | solubility ([2]; phosphate buffered saline (PBS), aqueous buffer, read-out: solubility in phosphate buffered saline (PBS)) | solubility ([2]; water, read-out: solubility in water) | degradation as an aqueous solution ([3]; aqueous solution) | degradation as a solid ([3]; solid)
1 | CC(C)c1cccc(C(C)C)c1O [propofol, 2,6-diisopropylphenol] | approximately 90% |  |  |  | 
2 | CC(C)c1cccc(C(C)C)c1OC(=O)OC[C@H](N)C(=O)O.Cl [compound (6), (S)-2-Amino-3-(2,6-Diisopropylphenoxy-carbonyloxy)-Propanoic Acid Hydrochloride] |  | 8180 µg/mL | 7580 µg/mL | no degradation | no degradation
